In experiment [1] the target is MAP/microtubule affinity-regulating kinase 3 (Homo sapiens) (UniProt P27448). The experiment is described as follows: Inhibition of human full length c-TAK1 expressed in Escherichia coli cell assessed as substrate phosphorylation using fluorescence-labelled peptides as substrate at 2 uM after 90 mins by microfluidic peptide phosphorylation assay.
Experiment [2] addresses Casein kinase I isoform delta (Homo sapiens) (UniProt P48730). Briefly: Inhibition of human CK1D catalytic domain expressed in Escherichia coli cell assessed as substrate phosphorylation using fluorescence-labelled peptides as substrate at 0.06 uM after 90 mins by microfluidic peptide phosphorylation assay.
Experiment [3] deals with MAP kinase-activated protein kinase 3 (Homo sapiens) (UniProt Q16644). The experiment is described as follows: Inhibition of human full length MAPKAPK3 expressed in Escherichia coli cell assessed as substrate phosphorylation using fluorescence-labelled peptides as substrate at 0.06 uM after 90 mins by microfluidic peptide phosphorylation assay.
Experiment [4] deals with MAP kinase-activated protein kinase 2 (Homo sapiens) (UniProt P49137). Briefly: Inhibition of human full length MAPKAPK2 expressed in baculovirus assessed as substrate phosphorylation using fluorescence-labelled peptides as substrate at 9 uM after 90 mins by microfluidic peptide phosphorylation assay.
Experiment [5] concerns the target Calcium/calmodulin-dependent protein kinase type II subunit gamma (Homo sapiens) (UniProt Q13555). Briefly: Inhibition of human CAMK2 gamma catalytic domain expressed in baculovirus assessed as substrate phosphorylation using fluorescence-labelled peptides as substrate at 9 uM after 90 mins by microfluidic peptide phosphorylation assay.
For another experiment, the species on record is Homo sapiens. Briefly: Inhibition of human full length PKA expressed in baculovirus assessed as substrate phosphorylation using fluorescence-labelled peptides as substrate at 9 uM after 90 mins by microfluidic peptide phosphorylation assay.
The target of experiment [6] is T1, cGMP-dependent protein kinase 1 (Homo sapiens) (UniProt Q13976).
T1 sequence (whole entry): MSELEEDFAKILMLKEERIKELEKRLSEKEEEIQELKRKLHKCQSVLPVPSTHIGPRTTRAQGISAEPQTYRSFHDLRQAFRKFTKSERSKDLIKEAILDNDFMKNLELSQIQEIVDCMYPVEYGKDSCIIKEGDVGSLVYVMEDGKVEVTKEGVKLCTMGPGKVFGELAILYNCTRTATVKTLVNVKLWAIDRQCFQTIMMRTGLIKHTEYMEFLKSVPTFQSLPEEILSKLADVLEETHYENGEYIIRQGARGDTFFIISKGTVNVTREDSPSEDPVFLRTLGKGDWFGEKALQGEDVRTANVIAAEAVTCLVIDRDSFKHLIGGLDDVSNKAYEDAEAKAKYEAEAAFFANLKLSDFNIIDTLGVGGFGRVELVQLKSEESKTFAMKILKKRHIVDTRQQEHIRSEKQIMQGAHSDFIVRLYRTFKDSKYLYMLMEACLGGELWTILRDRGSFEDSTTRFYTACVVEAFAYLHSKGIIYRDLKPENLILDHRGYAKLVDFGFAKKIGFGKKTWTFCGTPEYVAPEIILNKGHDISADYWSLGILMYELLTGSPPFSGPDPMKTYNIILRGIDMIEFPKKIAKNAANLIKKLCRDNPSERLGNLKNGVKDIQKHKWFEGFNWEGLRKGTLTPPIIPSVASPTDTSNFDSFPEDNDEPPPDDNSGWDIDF
Briefly: Inhibition of human full length PKG-1beta expressed in baculovirus assessed as substrate phosphorylation using fluorescence-labelled peptides as substrate at 95 uM after 90 mins by microfluidic peptide phosphorylation assay.

For experiment [7], the system named is Tyrosine-protein kinase ABL1 (Homo sapiens), P00519 [H396P]. Briefly: Inhibition of human truncated ABL H396P mutant expressed in baculovirus assessed as substrate phosphorylation using fluorescence-labelled peptides as substrate at 95 uM after 90 mins by microfluidic peptide phosphorylation assay.
The target in experiment [8] is Fibroblast growth factor receptor 2 (Homo sapiens) (UniProt P21802). The experiment is described as follows: Inhibition of human FGFR2 catalytic domain expressed in baculovirus assessed as substrate phosphorylation using fluorescence-labelled peptides as substrate at 8 uM after 90 mins by microfluidic peptide phosphorylation assay.
In experiment [9] the target is T2, Inhibitor of nuclear factor kappa-B kinase subunit beta (Homo sapiens) (UniProt O14920).
T2 sequence (whole entry): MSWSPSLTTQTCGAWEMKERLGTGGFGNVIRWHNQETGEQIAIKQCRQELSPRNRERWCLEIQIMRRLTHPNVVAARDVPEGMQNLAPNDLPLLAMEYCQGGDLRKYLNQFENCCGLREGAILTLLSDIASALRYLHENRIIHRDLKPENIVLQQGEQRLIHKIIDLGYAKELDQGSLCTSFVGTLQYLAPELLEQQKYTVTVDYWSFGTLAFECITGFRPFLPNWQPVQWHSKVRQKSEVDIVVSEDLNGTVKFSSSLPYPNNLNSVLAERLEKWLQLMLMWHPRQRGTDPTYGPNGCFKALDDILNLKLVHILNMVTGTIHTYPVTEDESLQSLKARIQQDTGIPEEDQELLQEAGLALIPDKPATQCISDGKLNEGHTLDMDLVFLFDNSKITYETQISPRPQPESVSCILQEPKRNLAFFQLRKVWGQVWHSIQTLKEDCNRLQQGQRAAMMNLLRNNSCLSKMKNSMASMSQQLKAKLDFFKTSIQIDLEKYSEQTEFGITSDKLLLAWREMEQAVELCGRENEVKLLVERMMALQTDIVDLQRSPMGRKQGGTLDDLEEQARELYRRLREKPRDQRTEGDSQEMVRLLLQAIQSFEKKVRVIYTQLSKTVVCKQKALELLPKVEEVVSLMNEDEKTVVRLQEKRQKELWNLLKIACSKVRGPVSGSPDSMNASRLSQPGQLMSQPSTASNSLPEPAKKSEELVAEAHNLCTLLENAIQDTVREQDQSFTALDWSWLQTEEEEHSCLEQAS
Briefly: Inhibition of human full length IKK beta expressed in baculovirus assessed as substrate phosphorylation using fluorescence-labelled peptides as substrate at […] after 90 mins by microfluidic peptide phosphorylation assay.

The target of experiment [10] is Mitogen-activated protein kinase 1 (Homo sapiens) (UniProt P28482). Briefly: Inhibition of human full length ERK2 expressed in Escherichia coli cell assessed as substrate phosphorylation using fluorescence-labelled peptides as substrate at 420 uM after 90 mins by microfluidic peptide phosphorylation assay.

This note sets out measurements from ChEMBL document CHEMBL3132769, “Fragment growing to retain or alter the selectivity of anchored kinase hinge-binding fragments” (Medchemcomm, 2014).

Usually inhibition stands for the percentage by which the read-out fell short of the control.

Sequence of Calcium/calmodulin-dependent protein kinase type II subunit gamma (Homo sapiens) (Q13555 whole entry, the tested form may be a part): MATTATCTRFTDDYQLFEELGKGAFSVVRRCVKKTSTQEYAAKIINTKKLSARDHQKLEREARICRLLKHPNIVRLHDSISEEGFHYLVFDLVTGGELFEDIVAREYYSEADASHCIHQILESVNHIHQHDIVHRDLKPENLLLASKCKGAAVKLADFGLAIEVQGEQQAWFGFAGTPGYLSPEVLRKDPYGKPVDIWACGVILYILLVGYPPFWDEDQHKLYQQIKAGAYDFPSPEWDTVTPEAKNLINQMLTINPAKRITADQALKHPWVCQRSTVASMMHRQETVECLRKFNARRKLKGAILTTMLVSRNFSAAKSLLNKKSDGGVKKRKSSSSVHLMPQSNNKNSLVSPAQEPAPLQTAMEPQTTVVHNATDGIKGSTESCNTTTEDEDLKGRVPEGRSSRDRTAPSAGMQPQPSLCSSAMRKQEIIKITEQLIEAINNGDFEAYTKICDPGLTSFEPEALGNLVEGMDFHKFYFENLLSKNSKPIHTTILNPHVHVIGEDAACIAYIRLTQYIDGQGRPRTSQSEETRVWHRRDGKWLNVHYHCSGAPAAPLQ
Sequence of MAP kinase-activated protein kinase 3 (Homo sapiens) (Q16644 whole entry, looked up): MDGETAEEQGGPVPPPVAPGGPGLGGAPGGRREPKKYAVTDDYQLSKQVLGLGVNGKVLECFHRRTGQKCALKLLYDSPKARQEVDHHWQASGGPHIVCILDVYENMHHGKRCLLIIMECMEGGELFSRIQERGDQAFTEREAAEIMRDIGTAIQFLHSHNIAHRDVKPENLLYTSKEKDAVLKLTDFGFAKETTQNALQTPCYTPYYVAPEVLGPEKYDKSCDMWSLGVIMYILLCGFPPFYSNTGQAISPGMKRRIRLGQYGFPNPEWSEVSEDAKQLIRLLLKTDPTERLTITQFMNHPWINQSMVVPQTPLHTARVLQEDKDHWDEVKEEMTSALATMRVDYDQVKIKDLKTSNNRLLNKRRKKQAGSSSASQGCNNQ
Sequence of Casein kinase I isoform delta (Homo sapiens) (P48730 whole entry, looked up, the tested form may be a part, canonical isoform): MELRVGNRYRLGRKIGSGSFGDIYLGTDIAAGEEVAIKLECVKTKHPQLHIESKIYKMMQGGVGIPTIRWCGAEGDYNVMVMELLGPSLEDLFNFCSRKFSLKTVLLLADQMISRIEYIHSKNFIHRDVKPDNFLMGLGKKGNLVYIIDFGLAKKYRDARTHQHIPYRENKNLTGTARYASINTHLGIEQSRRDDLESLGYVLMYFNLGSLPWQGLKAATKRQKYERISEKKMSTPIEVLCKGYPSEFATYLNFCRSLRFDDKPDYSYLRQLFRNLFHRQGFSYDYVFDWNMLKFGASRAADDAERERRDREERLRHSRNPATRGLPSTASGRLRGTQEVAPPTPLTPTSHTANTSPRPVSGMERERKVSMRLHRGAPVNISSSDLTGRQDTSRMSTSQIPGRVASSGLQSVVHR
Sequence of Mitogen-activated protein kinase 1 (Homo sapiens) (P28482 whole entry): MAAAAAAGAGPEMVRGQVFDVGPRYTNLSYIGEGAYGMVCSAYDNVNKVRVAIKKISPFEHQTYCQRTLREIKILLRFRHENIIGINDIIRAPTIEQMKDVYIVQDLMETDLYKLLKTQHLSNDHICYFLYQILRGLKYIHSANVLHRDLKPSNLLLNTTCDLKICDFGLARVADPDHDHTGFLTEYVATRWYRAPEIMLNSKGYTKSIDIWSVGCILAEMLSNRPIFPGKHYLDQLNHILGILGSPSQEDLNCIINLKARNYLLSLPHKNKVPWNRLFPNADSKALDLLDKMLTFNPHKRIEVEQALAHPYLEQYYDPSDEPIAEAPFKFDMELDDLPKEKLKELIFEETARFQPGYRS
Sequence of MAP kinase-activated protein kinase 2 (Homo sapiens) (P49137 whole entry, looked up, the tested form may be a part): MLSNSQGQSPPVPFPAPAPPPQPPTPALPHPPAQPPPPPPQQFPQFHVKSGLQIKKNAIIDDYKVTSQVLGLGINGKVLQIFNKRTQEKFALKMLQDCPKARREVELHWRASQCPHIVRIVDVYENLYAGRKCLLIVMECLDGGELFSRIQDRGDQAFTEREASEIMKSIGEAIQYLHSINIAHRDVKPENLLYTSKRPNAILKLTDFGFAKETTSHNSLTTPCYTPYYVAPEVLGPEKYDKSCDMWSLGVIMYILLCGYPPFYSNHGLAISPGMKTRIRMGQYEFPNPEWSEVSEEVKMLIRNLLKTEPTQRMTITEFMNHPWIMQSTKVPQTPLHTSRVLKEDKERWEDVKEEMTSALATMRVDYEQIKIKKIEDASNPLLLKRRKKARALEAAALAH
Sequence of MAP/microtubule affinity-regulating kinase 3 (Homo sapiens) (P27448 whole entry, looked up, the tested form may be a part, canonical isoform): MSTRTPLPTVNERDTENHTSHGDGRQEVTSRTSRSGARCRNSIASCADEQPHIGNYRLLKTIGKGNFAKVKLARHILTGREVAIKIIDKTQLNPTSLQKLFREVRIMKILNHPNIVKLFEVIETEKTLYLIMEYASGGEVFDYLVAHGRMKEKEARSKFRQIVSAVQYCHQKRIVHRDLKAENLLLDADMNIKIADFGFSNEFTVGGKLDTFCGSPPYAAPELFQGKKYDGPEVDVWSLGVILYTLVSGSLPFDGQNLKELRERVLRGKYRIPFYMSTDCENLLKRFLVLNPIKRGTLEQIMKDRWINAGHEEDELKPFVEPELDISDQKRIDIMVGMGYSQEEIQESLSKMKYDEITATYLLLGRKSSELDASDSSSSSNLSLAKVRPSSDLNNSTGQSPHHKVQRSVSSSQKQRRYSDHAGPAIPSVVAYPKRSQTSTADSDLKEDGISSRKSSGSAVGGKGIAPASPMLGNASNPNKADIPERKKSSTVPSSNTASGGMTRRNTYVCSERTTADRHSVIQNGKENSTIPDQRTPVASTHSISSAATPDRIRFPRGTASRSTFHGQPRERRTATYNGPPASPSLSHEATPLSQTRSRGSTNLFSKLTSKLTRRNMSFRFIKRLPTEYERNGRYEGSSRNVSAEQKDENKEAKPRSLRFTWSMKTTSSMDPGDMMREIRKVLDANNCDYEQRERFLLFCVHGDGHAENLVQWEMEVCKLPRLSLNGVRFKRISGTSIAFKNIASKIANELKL
Sequence of Fibroblast growth factor receptor 2 (Homo sapiens) (P21802 22-821 limits assumed): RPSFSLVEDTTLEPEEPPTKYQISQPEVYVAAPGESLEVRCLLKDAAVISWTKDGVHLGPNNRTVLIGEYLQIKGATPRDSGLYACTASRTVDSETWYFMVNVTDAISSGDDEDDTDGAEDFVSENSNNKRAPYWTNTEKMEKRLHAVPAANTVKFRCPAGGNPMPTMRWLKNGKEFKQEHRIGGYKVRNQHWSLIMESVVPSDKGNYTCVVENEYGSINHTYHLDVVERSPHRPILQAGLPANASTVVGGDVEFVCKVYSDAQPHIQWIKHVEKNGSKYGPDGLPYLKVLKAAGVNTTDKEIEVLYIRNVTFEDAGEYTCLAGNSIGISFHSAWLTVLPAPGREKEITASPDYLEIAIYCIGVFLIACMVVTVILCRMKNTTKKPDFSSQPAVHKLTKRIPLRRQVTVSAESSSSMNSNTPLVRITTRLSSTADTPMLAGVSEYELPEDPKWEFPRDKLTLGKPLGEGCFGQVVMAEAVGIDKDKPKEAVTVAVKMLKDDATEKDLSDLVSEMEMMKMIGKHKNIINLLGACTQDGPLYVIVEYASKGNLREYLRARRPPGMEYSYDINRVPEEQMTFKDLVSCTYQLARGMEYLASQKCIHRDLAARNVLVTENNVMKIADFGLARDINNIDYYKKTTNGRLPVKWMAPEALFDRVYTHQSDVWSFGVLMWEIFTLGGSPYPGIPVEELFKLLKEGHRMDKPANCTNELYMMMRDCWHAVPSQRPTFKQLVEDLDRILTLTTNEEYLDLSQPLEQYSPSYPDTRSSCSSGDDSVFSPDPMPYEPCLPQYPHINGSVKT

For the compound `NC1CCN(c2ncnc3[nH]ccc23)CC1`, the inhibition in [1] amounted to 3%. Take `NC1(Cc2ccc(Cl)cc2)CCN(c2ncnc3[nH]ccc23)CC1`: the inhibition amounted to 0.5% in [2] and 7% in experiment [3]. Take `NCC1CN(c2ncnc3[nH]c4cnccc4c23)CCO1` (stereo unspecified): the inhibition in [4] came out at 19.5%; in experiment [5] it was 24%; in the experiment listed under Homo sapiens it was 33.5%.

`NCCc1ccc(-c2ncnc3[nH]cnc23)cc1`: the inhibition in experiment [6] came to 93%; in experiment [7] it was 69.5%. On to `NCC1CCN(c2ncnc3[nH]ccc23)CC1`, for which the inhibition in experiment [8] is 29.5%. For `COC(=O)c1cnc(Nc2cnc(C#N)cn2)cc1NCC1CCNCC1`, the inhibition in experiment [9] was 2%. As for `c1nc(N2CCOCC2)c2nc[nH]c2n1`, the inhibition in [10] worked out at 68%.
